Test results as given in patent EP0156772A2, “Novel pharmaceutical use for CGRPs” (SANDOZ AG, priority 1984, dated 1985).

Columns and labels:
[1] = Continuous on-line measurement of free calcium concentrations in the extra-corporeal blood circulation; type: in vivo, young rabbits; conditions: for calcaemic response: rat CGRP i.v.
Protocol: • The general scheme for this test is represented in figure 1 attached: • A flow-through electrode system with two Ca2+^-selective liquid membrane electrodes is inserted in the arterio-venous extracor- poreal blood circulatory system of the test animal this being established by means of indwelling catheters connecting the femoral artery with femoral vein.
The blood is pumped from the artery to the vein at a flow rate of 18 ml/h through the system containing Ca2+^-selective electrodes. A second peristaltic pump aspirates the reference solution of electrolytes, which is transported at a flow rate of 0.9 ml/h, passing the compartment of the reference electrode and mixed with the circulating blood at the site of the common electrode. The mixed fluids are then returned into the ciculatory system of the animal.
The Ca2+^-selective electrode allows the potentiometric measurement of the ionized calcium quantitatively. The potential difference between the reference electrode and the Ca2+^-selective electrode is measured differentially relative to the common electrode. The analogue signal of the difference amplifier is processed by a digital voltmeter. Results are obtained in mV and are continously recorded as a function of time. The voltage difference is […].
Following administration of CGRPs i.v. to the test animal, a potent influence on Ca2+ concentration over extended periods of time and up to at least 5 hours is observed at dosages of from about 0.1 to about 25 µg/kg. More importantly results observed indicate that CGRPs exert both a hypo- and hyper-calcaemic effect which is both dose- and time-dependent. […] Specific results obtained following Ix administration of rat CGRP at varying dosages and illustrating activity profile are shown in the accompanying Figs. 2 through 5. • In all cases administration of test substance occurs at time • Fig.2 .: This is a plot for observed change in calcium level [Δ% calcaemia] with time, following i.v. administration of rat CGRP at dosages of from 0.156 µg/kg to 5.0 µg/kg.

[2] = Clinical trial B: human CGRP s.c. accompanied by salmon or human calcitonin; type: in vivo, volunteer subjects (male and female); conditions: human CGRP s.c. 10 to 200 µg accompanied by salmon or human calcitonin 5 to 100 I.U. (or M.R.C) s.c. or i.m.
Description: The methodology of clinical trial A is repeated, with administration of human CGRP in accordance with regimen 1.3. In this trial however administration is accompanied by administration of salmon or human calcitonin at dosages of from 5 to 100 I.U. (or M.R.C), [e.g. at dosages of 5, 10, 25, 50 or 100 I.U. (or M.R.C.)] administered by injection either s.c. or i.m.

[3] = Clinical trial A: human CGRP in active Paget's disease, serum parameters prior and post administration; type: in vivo, volunteer subjects (male and female)
Protocol: Human CGRP is employed as trial substance and is tested by administration in accordance with the following regimens.
The following parameters are measured prior and post-administration: circulating calcium serum levels: alkaline phosphatase: hydroxyproline: bone specific protein levels.

SMILES	observed change in calcium level, course of response ([1]; Fig. 6, i.v., 2.5 µg/kg, groups of 6 animals)	influence on measured serum parameters [2]	reduction of circulating serum calcium levels ([2]; compared with salmon calcitonin alone)	circulating serum calcium levels ([3]; i.v. 0.1 to 20 µg, i.v. infusion 10 to 100 µg, s.c. 10 to 200 µg, intranasal 10 to 500 µg, or s.c. daily for 5 to 7 days)	alkaline phosphatase levels ([3]; same regimens)	hydroxyproline levels ([3]; same regimens)	bone specific proteins ([3]; same regimens, in particular proteins reflecting bone metabolic turn over)	AUCS (areas under curve) ([1]; Fig. 2, i.v., 0.156 µg/kg to 5.0 µg/kg, calcium level versus time)	observed change in calcium level [Δ% calcaemia] ([1]; Fig. 2, i.v., dosages of from 0.156 µg/kg to 5.0 µg/kg)	observed change in calcium level after the initial hypocalcaemic response ([1]; Fig. 5, 10 pg/kg i.v.)	hypocalcaemic response ([1]; Fig. 5, 10 pg/kg i.v., compared with untreated control)	duration of hypercalcaemic response following initial administration ([1]; Fig. 5, 10 pg/kg i.v., printed 'up to at least 5 hours')	observed change in calcium level ([1]; Figs 3 to 4, i.v., 2.5 and 5.0 µg/kg, groups of four test animals, compared with untreated controls)	calcaemic response [1]	calcaemic response ([1]; dosages in excess of 5 µg/kg)
CC(C)C[C@H](NC(=O)CNC(=O)[C@H](C)NC(=O)[C@H](CC(C)C)NC(=O)[C@H](CCCNC(=N)N)NC(=O)[C@H](Cc1c[nH]cn1)NC(=O)[C@@H](NC(=O)[C@@H](NC(=O)[C@@H]1CSSC[C@H](NC(=O)[C@H](C)N)C(=O)N[C@@H](CC(=O)O)C(=O)N[C@@H]([C@@H](C)O)C(=O)N[C@@H](C)C(=O)N[C@@H]([C@@H](C)O)C(=O)N1)C(C)C)[C@@H](C)O)C(=O)N[C@@H](CC(C)C)C(=O)N[C@@H](CO)C(=O)N[C@@H](CCCNC(=N)N)C(=O)N[C@@H](CO)C(=O)NCC(=O)NCC(=O)N[C@H](C(=O)N[C@H](C(=O)N[C@@H](CCCCN)C(=O)N[C@@H](CC(N)=O)C(=O)N[C@@H](CC(N)=O)C(=O)N[C@@H](Cc1ccccc1)C(=O)N[C@H](C(=O)N1CCC[C@H]1C(=O)N[C@H](C(=O)N[C@@H](CC(N)=O)C(=O)N[C@H](C(=O)NCC(=O)N[C@@H](CO)C(=O)N[C@@H](CCCCN)C(=O)N[C@@H](C)C(=O)N[C@@H](Cc1ccccc1)C(N)=O)C(C)C)[C@@H](C)O)C(C)C)C(C)C)C(C)C [human CGRP]	parallels that recorded for rat CGRP in Fig. 5	observed in this trial as in trial A	superior to that observed on administration of salmon calcitonin alone	significant reduction	concomitant reduction	concomitant reduction	marked reduction	–	–	–	–	–	–	–	–
CC(C)C[C@H](NC(=O)CNC(=O)[C@H](C)NC(=O)[C@H](CC(C)C)NC(=O)[C@H](CCCNC(=N)N)NC(=O)[C@H](Cc1c[nH]cn1)NC(=O)[C@@H](NC(=O)[C@@H](NC(=O)[C@@H]1CSSC[C@H](NC(=O)[C@@H](N)CO)C(=O)N[C@@H](CC(N)=O)C(=O)N[C@@H]([C@@H](C)O)C(=O)N[C@@H](C)C(=O)N[C@@H]([C@@H](C)O)C(=O)N1)C(C)C)[C@@H](C)O)C(=O)N[C@@H](CC(C)C)C(=O)N[C@@H](CO)C(=O)N[C@@H](CCCNC(=N)N)C(=O)N[C@@H](CO)C(=O)NCC(=O)NCC(=O)N[C@H](C(=O)N[C@H](C(=O)N[C@@H](CCCCN)C(=O)N[C@@H](CC(=O)O)C(=O)N[C@@H](CC(N)=O)C(=O)N[C@@H](Cc1ccccc1)C(=O)N[C@H](C(=O)N1CCC[C@H]1C(=O)N[C@H](C(=O)N[C@@H](CC(N)=O)C(=O)N[C@H](C(=O)NCC(=O)N[C@@H](CO)C(=O)N[C@@H](CCC(=O)O)C(=O)N[C@@H](C)C(=O)N[C@@H](Cc1ccccc1)C(N)=O)C(C)C)[C@@H](C)O)C(C)C)C(C)C)C(C)C [rat CGRP]	–	–	–	–	–	–	–	statistically linear	decrease (hypocalcaemia)	reverse hypercalcaemic response which continues very strongly	though strongly marked, is transitory only	at least 5 hours	hypocalcaemia is again observed	primarily hypo- calcaemic response	primarily hyper-calcaemic response preceeded by a transient hypo-calcaemic response at the lower end of the dosage range
